According to patent US20210261569A1, “FUSED HETEROCYCLIC DERIVATIVES HAVING SELECTIVE BACE1 INHIBITORY ACTIVITY” (Shionogi & Co., Ltd., priority 2018, published 2021):

Experiments:
Metabolic stability test = format: in vitro ADME; conditions: human liver microsomes 0.5 mg protein/mL, NADPH, 37° C.
Description: Using a commercially available pooled human liver microsomes, a compound of the present invention was reacted for a constant time, a remaining rate was calculated by comparing a reacted sample and an unreacted sample, thereby, a degree of metabolism in liver was assessed.
A reaction was performed (oxidative reaction) at 37° C. for 0 minute or 30 minutes in the presence of 1 mmol/L NADPH in 0.2 mL of a buffer (50 mmol/L Tris-HCl pH 7.4, 150 mmol/L potassium chloride, 10 mmol/L magnesium chloride) containing 0.5 mg protein/mL of human liver microsomes. After the reaction, 50 μL of the reaction solution was added to 100 μL of a methanol/acetonitrile=1/1 (v/v), mixed and centrifuged at 3000 rpm for 15 minutes. The compound of the present invention in the supernatant was quantified by LC/MS/MS or solid phase extraction (SPE)/MS, and a remaining amount of the compound of the present invention after the reaction was calculated, letting a compound amount at 0 minute reaction time to be 100%.

[1] = molecular target: T1, human ether-a-go-go related gene (hERG) channel (Homo sapiens, UniProt Q12809); assay: hERG test (whole cell patch clamp, QPatch); format: cell-based; conditions: CHO cells expressing hERG, tail peak current
T1 construct: expressed in transfected cells; host or cells: CHO cells
T1 sequence (Q12809 whole entry): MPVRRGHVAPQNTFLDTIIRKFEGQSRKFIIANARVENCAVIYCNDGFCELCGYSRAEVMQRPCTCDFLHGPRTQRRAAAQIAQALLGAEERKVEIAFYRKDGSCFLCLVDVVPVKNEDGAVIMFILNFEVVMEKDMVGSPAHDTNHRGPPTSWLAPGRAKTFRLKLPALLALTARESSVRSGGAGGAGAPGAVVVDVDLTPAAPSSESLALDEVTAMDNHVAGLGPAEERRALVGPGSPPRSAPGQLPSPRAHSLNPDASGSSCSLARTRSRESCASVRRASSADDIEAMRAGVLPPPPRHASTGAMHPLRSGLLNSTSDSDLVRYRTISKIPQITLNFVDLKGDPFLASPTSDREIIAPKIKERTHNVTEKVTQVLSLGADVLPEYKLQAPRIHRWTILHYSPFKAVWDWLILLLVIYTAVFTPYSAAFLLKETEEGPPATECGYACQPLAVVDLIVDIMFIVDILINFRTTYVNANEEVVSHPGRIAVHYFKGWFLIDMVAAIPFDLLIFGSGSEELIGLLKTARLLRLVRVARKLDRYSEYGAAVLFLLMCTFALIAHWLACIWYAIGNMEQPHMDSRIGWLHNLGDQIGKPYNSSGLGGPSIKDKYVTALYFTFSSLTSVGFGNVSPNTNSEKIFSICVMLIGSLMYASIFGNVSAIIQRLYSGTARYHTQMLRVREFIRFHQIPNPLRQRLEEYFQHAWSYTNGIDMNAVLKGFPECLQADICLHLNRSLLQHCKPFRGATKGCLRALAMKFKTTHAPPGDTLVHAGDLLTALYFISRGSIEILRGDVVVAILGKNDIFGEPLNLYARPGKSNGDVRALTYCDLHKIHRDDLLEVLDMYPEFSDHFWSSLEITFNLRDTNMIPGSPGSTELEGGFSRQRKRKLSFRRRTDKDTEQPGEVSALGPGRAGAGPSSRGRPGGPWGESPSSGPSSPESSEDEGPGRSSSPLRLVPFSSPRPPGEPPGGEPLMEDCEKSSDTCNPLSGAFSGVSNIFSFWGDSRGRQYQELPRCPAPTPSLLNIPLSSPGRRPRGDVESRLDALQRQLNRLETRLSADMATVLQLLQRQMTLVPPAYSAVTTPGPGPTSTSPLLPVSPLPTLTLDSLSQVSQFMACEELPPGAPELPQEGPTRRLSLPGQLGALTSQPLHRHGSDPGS
Description: For the purpose of assessing risk of an electrocardiogram QT interval prolongation, effects on delayed rectifier K+ current (IKr), which plays an important role in the ventricular repolarization process of the compound of the present invention, was studied using CHO cells expressing human ether-a-go-go related gene (hERG) channel.
A cell was retained at a membrane potential of −80 mV by whole cell patch clamp method using an automated patch clamp system (QPatch; Sophion Bioscience A/S). After application of leak potential at −50 mV, IKr induced by depolarization pulse stimulation at +20 mV for 2 seconds and, further, repolarization pulse stimulation at −50 mV for 2 seconds was recorded.
After the generated current was stabilized, extracellular solution (NaCl: 145 mmol/L, KCl: 4 mmol/L, CaCl2:2 mmol/L MgCl2:1 mmol/L, 1 mmol/L, HEPES (4-(2-hydroxyethyl)-1-piperazineethanesulfonic acid: 10 mmol/L, glucose:10 mmol/L pH=7.4) in which the compound of the present invention have been dissolved at an objective concentration was applied to the cell under the room temperature condition for 10 minutes. From the recording IKr, an absolute value of the tail peak current was measured based on the current value at the resting membrane potential using an analysis software (QPatch assay software; Sophion Bioscience A/S). Further, the % inhibition relative to the tail peak current before application of the compound of the present invention was calculated, and compared with the vehicle-applied group (0.1% dimethyl sulfoxide solution) to assess influence of the compound of the present invention on IKr.

[2] = molecular target: T2, P-gp (MDR1 expressing LLC-PK1 cells) (Homo sapiens, UniProt P08183); assay: P-gp substrate test; format: in vitro ADME; conditions: MDR1 expressing LLC-PK1 cells vs parent LLC-PK1 cells
T2 construct: host or cells: LLC-PK1 (porcine kidney) cells
T2 sequence (P08183 whole entry): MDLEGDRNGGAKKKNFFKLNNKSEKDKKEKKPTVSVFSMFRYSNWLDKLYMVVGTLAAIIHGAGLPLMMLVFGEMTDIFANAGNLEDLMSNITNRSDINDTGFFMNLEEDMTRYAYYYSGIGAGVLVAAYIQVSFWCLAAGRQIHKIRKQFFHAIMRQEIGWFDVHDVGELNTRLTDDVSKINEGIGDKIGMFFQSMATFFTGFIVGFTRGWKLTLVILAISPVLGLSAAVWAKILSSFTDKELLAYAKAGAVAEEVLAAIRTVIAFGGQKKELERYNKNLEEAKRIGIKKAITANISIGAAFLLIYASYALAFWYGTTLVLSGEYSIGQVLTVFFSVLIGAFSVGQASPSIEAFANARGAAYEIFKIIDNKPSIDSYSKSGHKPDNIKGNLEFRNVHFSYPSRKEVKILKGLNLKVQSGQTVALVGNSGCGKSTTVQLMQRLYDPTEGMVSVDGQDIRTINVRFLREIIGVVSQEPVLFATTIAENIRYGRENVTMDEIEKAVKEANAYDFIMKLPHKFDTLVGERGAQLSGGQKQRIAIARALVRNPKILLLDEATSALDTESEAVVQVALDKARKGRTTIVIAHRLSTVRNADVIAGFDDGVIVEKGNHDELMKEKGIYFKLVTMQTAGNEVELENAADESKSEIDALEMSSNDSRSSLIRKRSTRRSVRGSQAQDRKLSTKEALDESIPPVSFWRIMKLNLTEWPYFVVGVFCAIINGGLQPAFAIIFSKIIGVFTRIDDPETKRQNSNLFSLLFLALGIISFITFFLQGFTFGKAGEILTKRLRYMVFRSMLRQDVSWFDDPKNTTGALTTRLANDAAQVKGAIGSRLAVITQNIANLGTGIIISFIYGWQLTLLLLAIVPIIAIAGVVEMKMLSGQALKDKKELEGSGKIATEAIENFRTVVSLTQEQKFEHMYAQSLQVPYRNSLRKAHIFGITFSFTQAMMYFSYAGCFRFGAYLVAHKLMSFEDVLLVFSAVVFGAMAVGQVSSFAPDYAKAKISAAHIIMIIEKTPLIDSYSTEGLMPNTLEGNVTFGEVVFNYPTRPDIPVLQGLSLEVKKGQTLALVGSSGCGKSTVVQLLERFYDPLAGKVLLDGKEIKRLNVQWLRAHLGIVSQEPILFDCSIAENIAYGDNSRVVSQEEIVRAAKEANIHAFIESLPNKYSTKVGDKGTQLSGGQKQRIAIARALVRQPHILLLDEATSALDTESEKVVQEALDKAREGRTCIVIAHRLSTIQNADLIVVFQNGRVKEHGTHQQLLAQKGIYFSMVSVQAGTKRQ
Description: 1. MDR1 expressing LLC-PK1 cells and its parent cells were routinely cultured in Medium A (Medium 199 (Invitrogen) supplemented with 10% FBS (Invitrogen), gentamycin (0.05 mg/mL, Invitrogen) and hygromycin B (100 μg/mL, Invitrogen)) at 37° C. under 5% CO2/95% 02 gasses. For the transport experiments, these cells were seeded on Transwell (Registered trademark) insert (96-well, pore size: 0.4 μm, Coaster) at a density of 1.4×10^4 cells/insert and added Medium B (Medium 199 supplemented with 10% FBS and gentamycin at 0.05 mg/mL) to the feeder tray. These cells were incubated in a CO2 incubator (5% CO2/95% 02 gasses, 37° C.) and replace apical and basolateral culture medium every 48-72 hr after seeding. These cells were used between 4 and 6 days after seeding. 2. The medium in the culture insert seeded with MDR1 expressing cells or parent cells were removed by aspiration and rinsed by HBSS. The apical side (140 μL) or basolateral side (175 μL) was replaced with transport buffer containing reference substrates and the present invention and then an aliquot (50 μL) of transport buffer in the donor side was collected to estimate initial concentration of reference substrate and the present invention. After incubation for designed time at 37° C., an aliquot (50 μL) of transport buffer in the donor and receiver side were collected. Assay was performed by duplicate or triplicate. 3. Reference substrate and the present invention in the aliquot was quantified by LC/MS/MS.
Permeated amounts across monolayers of MDR1 expressing and parent cells were determined, and permeation coefficients (Pe) were calculated using Excel 2003 from the following equitation:
Pe (cm/sec)=Permeated amount (pmol)/area of cell membrane (cm^2)/initial concentration (nM)/incubation time (sec) Where, permeated amount was calculated from permeation concentration (nM, concentration of the receiver side) of the substance after incubation for the defined time (sec) multiplied by volume. (mL) and area of cell membrane was used 0.1433 (cm2). The efflux ratio was calculated using the following equation:
Efflux Ratio=Basolateral-to-Apical Pe/Apical-to-Basolateral Pe
The net flux was calculated using the following equation:
Net flux=Efflux Ratio in MDR1 expressing cells/Efflux Ratio in parent cells

Structure (SMILES) | Remaining rate (%) at 30 min (Metabolic stability test) [%] | hERG inhibition (%) at 3 μM [1] [%] | P-gp ER ratio [2]
CC1(C)OC[C@H]2[C@@H]1OC(N)=N[C@]2(CF)c1cc(NC(=O)c2cnc(OCF)cn2)ccc1F [Compound I-096] | 65 | 19.4 | 3.3
NC1=N[C@](CF)(c2cc(NC(=O)c3cnc(OCF)cn3)ccc2F)[C@H]2CO[C@@H](CF)[C@H]2O1 [Compound I-112] | 91 | 5 | 5.3
NC1=N[C@](CF)(c2cc(NC(=O)c3cnc(OCF)cn3)ccc2F)[C@H]2[C@H](CF)OC[C@H]2O1 [Compound I-114] | 102 | 12.4 | 2.1
NC1=N[C@](CF)(c2cc(NC(=O)c3cnc(OCF)cn3)ccc2F)[C@H]2[C@H](CCF)OC[C@H]2O1 [Compound I-115] | 93 | 9.9 | 3
